In experiment [1] the test system is BMDM. Briefly: Antiperiodontic activity in mouse bone marrow macrophages assessed as reduction in Porphyromonas gingivalis-induced TNFalpha levels at 100 ug/ml after 4 hrs by ELISA. The class given is functional. (ELISA stands for enzyme-linked immunosorbent assay.)
In experiment [2] the test system is BMDM. The experiment in a line: Antiperiodontic activity in mouse bone marrow macrophages assessed as reduction in Porphyromonas gingivalis-induced TNFalpha levels at 20 to 100 ug/ml after 4 hrs by ELISA. The class given is functional.

Each structure is given as a SMILES string. The source made the active and inactive calls. The calls are words filed in the database; no cut-off is given here.

Consider `COC1=CC(=O)O[C@@H](/C=C/c2ccccc2)C1`, for which, in the experiment on BMDM [1], the result was Active.

As to `CCOC(=O)C1C(=O)C=C(OC(=O)c2ccccc2)CC1(C)C` (configuration not stated), the outcome in the experiment with BMDM [2] was Active.

Source of the values: ChEMBL document CHEMBL4229402, “Kava analogues as agents for treatment of periodontal diseases: Synthesis and initial biological evaluation” (Bioorg Med Chem Lett, 2018).
